5 compounds from patent US11633459B2, “GIP derivatives and uses thereof” (priority 2018, dated 2023) can be followed below.

*1 amine or outer side, *2 acyl side, *3 side chain or, on linkers, in order; H or OH if unused. Where a SMILES comes first, the peptide text is derived from it. Side-chain parts run from the residue outwards. [ ]: non-standard residue; d: D form. The star is where a group is joined. X1 = O=C(O)CCCCCCCCCCCCCCCCCCC(=O)NCC1CCC(C(=O)*)CC1; γGlu = O=C(O)[C@H](CCC(=O)[*:2])N[*:1]; Nle = CCCC[C@H](N)C(=O)O; Aib = CC(C)(N)C(=O)O

One data set concerns the target T1, human GIP receptor (Homo sapiens, UniProt P48546).
T1 construct: expressed in transfected cells; host or cells: BHK cells (parent line BHKTS13), clone BHK CRE luc2P hGIPR clone #5
T1 sequence (P48546 22-466): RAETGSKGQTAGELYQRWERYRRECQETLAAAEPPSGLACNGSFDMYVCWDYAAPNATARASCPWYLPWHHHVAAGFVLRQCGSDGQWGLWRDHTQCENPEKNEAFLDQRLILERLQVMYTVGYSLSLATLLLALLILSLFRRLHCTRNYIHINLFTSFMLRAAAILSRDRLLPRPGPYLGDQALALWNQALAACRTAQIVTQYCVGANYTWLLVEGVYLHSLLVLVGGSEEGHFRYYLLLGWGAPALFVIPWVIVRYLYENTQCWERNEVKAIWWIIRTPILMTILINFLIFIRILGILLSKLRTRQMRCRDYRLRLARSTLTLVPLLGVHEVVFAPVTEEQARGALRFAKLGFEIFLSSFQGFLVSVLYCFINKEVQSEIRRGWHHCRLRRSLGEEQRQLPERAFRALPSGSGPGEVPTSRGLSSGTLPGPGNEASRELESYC
The data set can be described thus: In vitro potency, CRE luciferase reporter gene assay, whole BHK cells expressing human GIP receptor. The note with it: 0.2% HSA. It counts as cell-based. The procedure: In Vitro Potency (CRE Luciferase; Whole Cells)
The in vitro potency is the measure of human GIP, GLP-1 or glucagon receptor activation, respectively, in a whole cell assay.
In vitro potency was determined by measuring the response of the human GIP, GLP-1 or glucagon receptor in a reporter gene assay in individual cell lines. […] When the respective receptor is activated it results in the production of cAMP, which in turn results in the luciferase protein being expressed. When assay incubation is completed the luciferase substrate (luciferin) is added and the enzyme converts luciferin to oxyluciferin to produce bioluminescence. The luminescence is measured as the readout for the assay.
The cells were derived from a clone containing the CRE luciferase element and were established by further transfection with the respective receptor to obtain the current clone.
The cells were cultured at 5% CO2 in Cell Culture Medium. They were aliquoted and stored in liquid nitrogen. The cells were kept in passage and were seeded out the day before each assay.
The Assay Buffer consisted of 1% ovalbumin and 0.1% Pluronic F-68 in Assay Medium with the addition of human serum albumin at twice the indicated concentrations.
1) Cells were plated at 5000 cells/well and incubated overnight.
2) Cells were washed three times in PBS.
3) Assay Medium (50 μl aliquot) with or without serum albumin was added to each well in the assay plate.
4) Stocks of the test compounds and reference compounds were diluted to a concentration of 0.2 μM in Assay Buffer. […] 8) The cells were washed three times with PBS plus some liquid in each well. 9) A 100 μl aliquot of steadylite plus reagent was added to each well of the assay plate (reagent was light sensitive). 10) Each assay plate was covered with aluminum foil to protect it from light and shaken for 30 min at room temperature. 11) Each assay plate was read in a microtiter plate reader. Calculations and Results
The data from the microtiter plate reader was transferred to GraphPad Prism software. The software performs a non-linear regression (log(agonist) vs response).
A minimum of two replicates was measured for each sample. The reported values are averages of the replicates.
On the technique in general: Reporter assays use an easily measured gene product as a stand-in for the process of interest.

A short description of data set [1]: Pharmacokinetic study in minipigs, terminal half-life after i.v. administration. The following applies: female, Göttingen, minipig, plasma, iv, 5 nmol/kg.
Protocol: Pharmacokinetic Study in Minipigs
The purpose of this study is to determine the half-life in vivo of the derivatives of the present invention after i.v. administration to minipigs, i.e. the prolongation of their time in the body and thereby their time of action. This is done in a pharmacokinetic (PK) study, where the terminal half-life of the derivative in question is determined. By terminal half-life is generally meant the period of time it takes to halve a certain plasma concentration, measured after the initial distribution phase.
Female Göttingen minipigs were obtained from Ellegaard Göttingen Minipigs (Dalmose, Denmark) approximately 7-14 months of age and weighing from approximately 16-35 kg were used in the studies. The minipigs were housed individually and fed restrictedly once daily with SDS minipig diet (Special Diets Services, Essex, UK).
After at 3 weeks of acclimatisation two permanent central venous catheters were implanted in vena cava caudalis in each animal. The animals were allowed 1 week recovery after the surgery, and were then used for repeated pharmacokinetic studies with a suitable wash-out period between successive derivative dosing.
Blood samples (for example 0.8 ml) were collected in EDTA buffer (8 mM) and then centrifuged at 4° C. and 1942G for 10 minutes.
Individual plasma concentration-time profiles were analysed by a non-compartmental model in Phoenix WinNonLin ver. […] (Pharsight Inc., Mountain View, Calif., USA), and the resulting terminal half-lives (harmonic mean) determined.

Usually EC50 stands for the midpoint of the concentration-response curve. The half-life is the time needed for the level to fall by half in the phase considered. Low readings indicate rapid decline, high ones slow decline.

With `CCCC[C@H](NC(=O)[C@H](C)NC(=O)[C@@H](NC(=O)[C@H](CO)NC(=O)[C@H](Cc1ccc(O)cc1)NC(=O)[C@H](CC(=O)O)NC(=O)[C@H](CO)NC(=O)[C@@H](NC(=O)[C@H](Cc1ccccc1)NC(=O)[C@@H](NC(=O)CNC(=O)[C@H](CCC(=O)O)NC(=O)C(C)(C)NC(=O)[C@@H](N)Cc1ccc(O)cc1)[C@@H](C)O)[C@@H](C)CC)[C@@H](C)CC)C(=O)N[C@@H](CC(=O)O)C(=O)N[C@@H](CCCCN)C(=O)N[C@H](C(=O)N[C@@H](CCCNC(=N)N)C(=O)N[C@@H](CCC(N)=O)C(=O)NC(C)(C)C(=O)N[C@@H](CC(=O)O)C(=O)N[C@@H](Cc1ccccc1)C(=O)N[C@H](C(=O)N[C@@H](CCCCNC(=O)CC[C@H](NC(=O)CC[C@H](NC(=O)CC[C@H](NC(=O)C1CCC(CNC(=O)CCCCCCCCCCCCCCCCCCC(=O)O)CC1)C(=O)O)C(=O)O)C(=O)O)C(=O)N[C@@H](Cc1c[nH]c2ccccc12)C(=O)N[C@@H](CC(C)C)C(=O)N[C@@H](CC(C)C)C(=O)N[C@@H](C)C(=O)N[C@@H](CCC(N)=O)C(=O)N[C@@H](CCCCN)C(=O)NCC(=O)O)C(C)C)[C@@H](C)CC` (stereo partly drawn) [Compound 12, N{Epsilon-24}-[(4S)-4-carboxy-4-[[(4S)-4-carboxy-4-[[(4S)-4-carboxy-4-[[4-[(19-carboxynonadecanoylamino)methyl]cyclohexanecarbonyl]amino]butanoyl]amino]-butanoyl]amino]butanoyl]-[Aib2,Nle14,Arg18,Aib20,Lys24]-hGIP(1-31)] (H-Y[Aib]EGTFISDYSIA[Nle]DKIRQ[Aib]DFVK([γGlu-γGlu-γGlu-X1])WLLAQKG-OH), the EC50 on human GIP receptor turned out to be 0.0712 nM. In data set [1], this compound had a half-life of 132 h.

Regarding `CCCC[C@H](NC(=O)[C@H](C)NC(=O)[C@@H](NC(=O)[C@H](CO)NC(=O)[C@H](Cc1ccc(O)cc1)NC(=O)[C@H](CC(=O)O)NC(=O)[C@H](CO)NC(=O)[C@@H](NC(=O)[C@H](Cc1ccccc1)NC(=O)[C@@H](NC(=O)CNC(=O)[C@H](CCC(=O)O)NC(=O)C(C)(C)NC(=O)[C@@H](N)Cc1ccc(O)cc1)[C@@H](C)O)[C@@H](C)CC)[C@@H](C)CC)C(=O)N[C@@H](CC(=O)O)C(=O)N[C@@H](CCCCN)C(=O)N[C@H](C(=O)N[C@@H](CCCNC(=N)N)C(=O)N[C@@H](CCC(N)=O)C(=O)N[C@@H](CCC(N)=O)C(=O)N[C@@H](CC(=O)O)C(=O)N[C@@H](Cc1ccccc1)C(=O)N[C@H](C(=O)N[C@@H](CCCCNC(=O)COCCOCCNC(=O)COCCOCCNC(=O)CC[C@H](NC(=O)C1CCC(CNC(=O)CCCCCCCCCCCCCCCCCCC(=O)O)CC1)C(=O)O)C(=O)N[C@@H](Cc1c[nH]c2ccccc12)C(=O)N[C@@H](CC(C)C)C(=O)N[C@@H](CC(C)C)C(=O)N[C@@H](C)C(=O)N[C@@H](CCC(N)=O)C(=O)N[C@@H](CCCCN)C(=O)NCC(=O)O)C(C)C)[C@@H](C)CC` (stereo partly drawn) [Compound 3, N{Epsilon-24}-[2-[2-[2-[[2-[2-[2-[[(4S)-4-carboxy-4-[[4-[(19-carboxynonadecanoylamino)methyl]cyclohexanecarbonyl]amino]butanoyl]amino]ethoxy]ethoxy]acetyl]amino]ethoxy]ethoxy]acetyl]-[Aib2,Nle14,Arg18,Lys24]-hGIP(1-31)], the EC50 on human GIP receptor stood at 0.0447 nM. In data set [1], this compound gave a half-life of 96 h.

For the compound `CCCC[C@H](NC(=O)[C@H](C)NC(=O)[C@@H](NC(=O)[C@H](CO)NC(=O)[C@H](Cc1ccc(O)cc1)NC(=O)[C@H](CC(=O)O)NC(=O)[C@H](CO)NC(=O)[C@@H](NC(=O)[C@H](Cc1ccccc1)NC(=O)[C@@H](NC(=O)CNC(=O)[C@H](CCC(=O)O)NC(=O)C(C)(C)NC(=O)[C@@H](Cc1ccc(O)cc1)NC(C)=O)[C@@H](C)O)[C@@H](C)CC)[C@@H](C)CC)C(=O)N[C@@H](CC(=O)O)C(=O)N[C@@H](CCCCN)C(=O)N[C@H](C(=O)N[C@@H](Cc1c[nH]cn1)C(=O)N[C@@H](CCC(N)=O)C(=O)N[C@@H](CCC(N)=O)C(=O)N[C@@H](CC(=O)O)C(=O)N[C@@H](Cc1ccccc1)C(=O)N[C@H](C(=O)N[C@@H](CCCCNC(=O)CC[C@H](NC(=O)CC[C@H](NC(=O)CC[C@H](NC(=O)C1CCC(CNC(=O)CCCCCCCCCCCCCCCCCCC(=O)O)CC1)C(=O)O)C(=O)O)C(=O)O)C(=O)N[C@@H](Cc1c[nH]c2ccccc12)C(=O)N[C@@H](CC(C)C)C(=O)N[C@@H](CC(C)C)C(=O)N[C@@H](C)C(=O)N[C@@H](CCC(N)=O)C(=O)N[C@@H](CCCCN)C(=O)N1CCC[C@H]1C(N)=O)C(C)C)[C@@H](C)CC` (stereo partly drawn) [Compound 32, N{1}-acetyl,N{Epsilon-24}-[(4S)-4-carboxy-4-[[(4S)-4-carboxy-4-[[(4S)-4-carboxy-4-[[4-[(19-carboxynonadecanoylamino)methyl]cyclohexanecarbonyl]amino]butanoyl]-amino]butanoyl]amino]butanoyl]-[D-Tyr1,Aib2, Nle14,Lys24,Pro31]-hGIP(1-31) amide] (Ac-[dY][Aib]EGTFISDYSIA[Nle]DKIHQQDFVK([γGlu-γGlu-γGlu-X1])WLLAQKP-NH2), the half-life in data set [1] is 121 h.

In data set [1], `CCCC[C@H](NC(=O)[C@H](C)NC(=O)[C@@H](NC(=O)[C@H](CO)NC(=O)[C@H](Cc1ccc(O)cc1)NC(=O)[C@H](CC(=O)O)NC(=O)[C@H](CO)NC(=O)[C@@H](NC(=O)[C@H](Cc1ccccc1)NC(=O)[C@@H](NC(=O)CNC(=O)[C@H](CCC(=O)O)NC(=O)C(C)(C)NC(=O)[C@@H](N)Cc1ccc(O)cc1)[C@@H](C)O)[C@@H](C)CC)[C@@H](C)CC)C(=O)N[C@@H](CC(=O)O)C(=O)N[C@@H](CCCCN)C(=O)N[C@H](C(=O)N[C@@H](Cc1c[nH]cn1)C(=O)N[C@@H](CCC(N)=O)C(=O)N[C@@H](CCC(N)=O)C(=O)N[C@@H](CC(=O)O)C(=O)N[C@@H](Cc1ccccc1)C(=O)N[C@H](C(=O)N[C@@H](CCCCNC(=O)CC[C@H](NC(=O)CC[C@H](NC(=O)CC[C@H](NC(=O)C1CCC(CNC(=O)CCCCCCCCCCCCCCCCCCC(=O)O)CC1)C(=O)O)C(=O)O)C(=O)O)C(=O)N[C@@H](Cc1c[nH]c2ccccc12)C(=O)N[C@@H](CC(C)C)C(=O)N[C@@H](CC(C)C)C(=O)N[C@@H](C)C(=O)N[C@@H](CCC(N)=O)C(=O)N[C@@H](CCCCN)C(=O)N1CCC[C@H]1C(N)=O)C(C)C)[C@@H](C)CC` (stereo partly drawn) [Compound 27, N{Epsilon-24}-[(4S)-4-carboxy-4-[[(4S)-4-carboxy-4-[[(4S)-4-carboxy-4-[[4-[(19-carboxynonadecanoylamino)methyl]cyclohexanecarbonyl]amino]butanoyl]amino]-butanoyl]amino]butanoyl]-[Aib2,Nle14,Lys24,Pro31]-hGIP(1-31) amide] (H-Y[Aib]EGTFISDYSIA[Nle]DKIHQQDFVK([γGlu-γGlu-γGlu-X1])WLLAQKP-NH2) gave a half-life of 147 h.

On to `CCCC[C@H](NC(=O)[C@H](C)NC(=O)[C@@H](NC(=O)[C@H](CO)NC(=O)[C@H](Cc1ccc(O)cc1)NC(=O)[C@H](CC(=O)O)NC(=O)[C@H](CO)NC(=O)[C@@H](NC(=O)[C@H](Cc1ccccc1)NC(=O)[C@@H](NC(=O)CNC(=O)[C@H](CCC(=O)O)NC(=O)[C@H](C)NC(=O)[C@@H](Cc1ccc(O)cc1)NC(C)=O)[C@@H](C)O)[C@@H](C)CC)[C@@H](C)CC)C(=O)N[C@@H](CC(=O)O)C(=O)N[C@@H](CCCCN)C(=O)N[C@H](C(=O)N[C@@H](CCCNC(=N)N)C(=O)N[C@@H](CCC(N)=O)C(=O)N[C@@H](CCC(N)=O)C(=O)N[C@@H](CC(=O)O)C(=O)N[C@@H](Cc1ccccc1)C(=O)N[C@H](C(=O)N[C@@H](CCCCNC(=O)CC[C@H](NC(=O)CC[C@H](NC(=O)CC[C@H](NC(=O)C1CCC(CNC(=O)CCCCCCCCCCCCCCCCCCC(=O)O)CC1)C(=O)O)C(=O)O)C(=O)O)C(=O)N[C@@H](Cc1c[nH]c2ccccc12)C(=O)N[C@@H](CC(C)C)C(=O)N[C@@H](CC(C)C)C(=O)N[C@@H](C)C(=O)N[C@@H](CCC(N)=O)C(=O)N[C@@H](CCCCN)C(=O)N1CCC[C@H]1C(N)=O)C(C)C)[C@@H](C)CC` (stereo partly drawn) [Compound 28, N{1}-acetyl,N{Epsilon-24}-[(4S)-4-carboxy-4-[[(4S)-4-carboxy-4-[[(4S)-4-carboxy-4-[[4-[(19-carboxynonadecanoylamino)methyl]cyclohexanecarbonyl]amino]butanoyl]-amino]butanoyl]amino]butanoyl]-[D-Tyr1,Nle14,Arg18,Lys24,Pro31]-hGIP(1-31) amide] (Ac-[dY]AEGTFISDYSIA[Nle]DKIRQQDFVK([γGlu-γGlu-γGlu-X1])WLLAQKP-NH2), for which, in data set [1], the half-life was 104 h.
